Laboratory results published in patent publication US7476755B2, “Therapeutic compounds” (Allergan, Inc., priority 2006, dated 2009).

Assays:
[1] = In vivo testing, monkey IOP; settings: Conc. 0.1% (g/100 mL)
Source text: (§1) In vivo testing done as described in U.S. patent application Ser. No. 11/009,298 gave the results in Table 2 below.

[2] = In vivo testing, dog IOP; settings: Conc. 0.1% (g/100 mL)
Source text: as §1

[3] = In vivo testing, dog hyperemia; settings: Conc. 0.1% (g/100 mL)
Source text: as §1

[4] = In vivo testing, rabbit hyperemia; settings: Conc. 0.1% (g/100 mL)
Source text: as §1

[5] = biological target: T1, EP2 (Homo sapiens, UniProt P43116); assay: Competition binding, human EP2 receptors ([3H]PGE2); set-up: expressed in transfected cells; settings: HEK 293 cells stably expressing human EP2, [3H]PGE2
T1 sequence (P43116 whole entry): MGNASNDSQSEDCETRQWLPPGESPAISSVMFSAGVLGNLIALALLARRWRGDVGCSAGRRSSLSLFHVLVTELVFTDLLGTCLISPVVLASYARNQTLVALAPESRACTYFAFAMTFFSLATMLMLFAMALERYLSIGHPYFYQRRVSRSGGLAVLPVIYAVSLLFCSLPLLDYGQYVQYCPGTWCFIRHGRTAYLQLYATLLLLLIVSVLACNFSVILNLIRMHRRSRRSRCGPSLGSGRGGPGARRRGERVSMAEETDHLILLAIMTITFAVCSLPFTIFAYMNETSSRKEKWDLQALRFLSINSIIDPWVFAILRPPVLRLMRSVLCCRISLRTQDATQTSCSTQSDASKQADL
Protocol: Competition binding experiments were performed in a medium containing Hank's balanced salt solution, Hepes 20 mM, pH 7.3, membranes (˜60 μg protein) or 2×10^5 cells from HEK 293 cells stably expressing human EP2 receptors, [^3H]PGE2 (10 nM) and various concentrations of test compounds in a total volume of 300 μl. Reaction mixtures were incubated at 23° C. for 60 min, and were filtered over Whatman GF/B filters under vacuum. Filters were washed three times with 5 ml ice-cold buffer containing 50 mM Tris/HCl (pH 7.3). Non-specific binding was estimated in the presence of excess unlabeled PGE2 (10 μM). Binding data fitted to the binding model for a single class of binding sites, using nonlinear regression analysis. IC50 values thus obtained were converted to Ki using the equation of Ki=(IC50/(1+[L]/KD) where [L] represents PGE2 concentration (10 nM) and KD the dissociation constant for [^3H]PGE2 at human EP2 receptors (40 nM). […]
The cell homogenate was centrifuged at 19000 r.p.m. for 20 min at 4° C. using a Beckman Ti-60 rotor. The resultant pellet was resuspended in TME buffer to give a final 1 mg/ml protein concentration, as determined by Biorad assay. […]
[^3H-] […] 17-phenyl PGF2α and non-specific binding determined with 10^−5M of unlabeled PGE2, or 17-phenyl PGF2α, according to receptor subtype studied.

[6] = biological target: T2, EP4 (Homo sapiens, UniProt P35408); assay: Radioligand binding, EP4; settings: HEK-293 cells expressing EP4, [3H]PGE2; read-out: EP4 Ki EC50
T2 construct: expressed in transfected cells; membrane fraction
T2 sequence (P35408 whole entry): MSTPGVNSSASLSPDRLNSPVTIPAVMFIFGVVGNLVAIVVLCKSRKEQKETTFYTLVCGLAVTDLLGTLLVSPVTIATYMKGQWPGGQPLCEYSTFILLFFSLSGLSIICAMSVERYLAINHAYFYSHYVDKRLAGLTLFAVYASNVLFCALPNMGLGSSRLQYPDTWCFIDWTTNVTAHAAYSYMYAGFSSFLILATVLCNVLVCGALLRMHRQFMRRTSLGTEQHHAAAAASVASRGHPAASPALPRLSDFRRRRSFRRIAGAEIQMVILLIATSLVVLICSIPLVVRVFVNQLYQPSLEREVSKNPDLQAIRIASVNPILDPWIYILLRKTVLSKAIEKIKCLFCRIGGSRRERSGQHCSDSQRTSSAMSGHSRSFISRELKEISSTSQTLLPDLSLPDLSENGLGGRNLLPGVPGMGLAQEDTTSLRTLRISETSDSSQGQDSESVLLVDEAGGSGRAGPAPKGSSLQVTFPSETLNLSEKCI
Protocol: HEK-293 cells stably expressing the human or feline FP receptor, or EP1, EP2, or EP4 receptors were washed with TME buffer, scraped from the bottom of the flasks, and homogenized for 30 sec using a Brinkman PT 10/35 polytron. TME buffer was added to achieve a final 40 ml volume in the centrifuge tubes (the composition of TME is 100 mM TRIS base, 20 mM MgCl2, […]; 10N HCl is added to achieve a pH of 7.4).
The cell homogenate was centrifuged at 19000 r.p.m. for 20 min at 4° C. using a Beckman Ti-60 rotor. The resultant pellet was resuspended in TME buffer to give a final 1 mg/ml protein concentration, as determined by Biorad assay. Radioligand binding competition assays vs. [^3H-]17-phenyl PGF2n (5 nM) were performed in a 100 μl volume for 60 min. Binding reactions were started by adding plasma membrane fraction. The reaction was terminated by the addition of 4 ml ice-cold TRIS-HCl buffer and rapid filtration through glass fiber GF/B filters using a Brandel cell harvester. The filters were washed 3 times with ice-cold buffer and oven dried for one hour.
[^3H-] PGE2 (specific activity 180 Ci mmol) was used as the radioligand for EP receptors. [^3H] 17-phenyl PGF2α was employed for FP receptor binding studies. […] 17-phenyl PGF2α and non-specific binding determined with 10^−5M of unlabeled PGE2, or 17-phenyl PGF2α, according to receptor subtype studied.

[7] = biological target: T3, hEP2/Gqs5 (Homo sapiens, UniProt P43116); assay: FLIPR calcium signal, EP2; type: cell-based; settings: HEK-293(EBNA) cells, read-out: EP2 Ca2+ EC50
T3 construct: expressed in transfected cells
T3 sequence (P43116 whole entry): as the sequence (P43116 whole entry) above
Protocol: HEK-293(EBNA) cells, stably expressing one type or subtype of recombinant human prostaglandin receptors (prostaglandin receptors expressed: hDP/Gqs5; hEP2; hEP2/Gqs5; hEP3A/Gqi5; hEP4/Gqs5; hFP; hIP; hTP), were cultured in 100 mm culture dishes in high-glucose DMEM medium containing 10% fetal bovine serum, 2 mM I-glutamine, 250 μg/ml geneticin (G418) and 200 μg/ml hygromycin B as selection markers, and 100 units/ml penicillin G, 100 μg/ml streptomycin and 0.25 μg/ml amphotericin B.
Cells were seeded at a density of 5×10^4 cells per well in Biocoat® Poly-D-lysine-coated black-wall, clear-bottom 96-well plates (Becton-Dickinson) and allowed to attach overnight in an incubator at 37° C. Cells were then washed two times with HBSS-HEPES buffer (Hanks Balanced Salt Solution without bicarbonate and phenol red, 20 mM HEPES, pH 7.4) using a Denley Cellwash plate washer (Labsystems). […]
Cells were excited with an Argon laser at 488 nm, and emission was measured through a 510-570 nm bandwidth emission filter (FLIPR™, Molecular Devices, Sunnyvale, Calif.). […] The peak increase in fluorescence intensity was recorded for each well. […] The peak fluorescence change in each drug-containing well was then expressed relative to the controls. […]

[8] = biological target: T1, EP2; assay: cAMP assay, EP2; type: cell-based; set-up: expressed in transfected cells; host or cells: HEK-EBNA cells; settings: HEK-EBNA cells expressing EP2
Protocol: A 384-well drug plate was prepared to contain 6 test compounds, PGE2 and cAMP in 16 serial dilutions in triplicate, using a Biomek station. HEK-EBNA cells expressing a target PG receptor subtype (EP2 or EP4) were suspended in a stimulation buffer (HBSS, 0.1% BSA, 0.5 mM IBMX and 5 mM HEPES, pH 7.4) in a density of 10^4 cells/5 μl. The reaction was initiated by mixing […] drug dilutions with 5 μl of HEK-EBNA cells in a well, carried out for 30 min at room temperature, and followed by the addition of 5 μl anti-cAMP acceptor beads in the control buffer with Tween-20 (25 mM NaCl, 0.03% Tween-20, 5 mM HEPES, pH7.4). After 30 min in the dark at room temperature, the mixtures were incubated with 15 μl biotinylated-cAMP/strepavidin donor beads in Lysis/Detection buffer (0.1% BSA, 0.3% Tween-20 and 5 mM HEPES, pH7.4) for 45 min at the room temperature. Fluorescence changes were read using a Fusion-alpha HT microplate reader.

For `CCCCCC(=O)c1ccc([C@@H]2[C@@H](C/C=C\CCCC(=O)O)[C@H](Cl)C[C@H]2O)cc1` [Entry 1], the “MONKEY Max. IOP (%)” value [1] was 31%, the “DOG Max. IOP (%)” value [2] was −50% and the “DOG Max. hyperemia” value [3] was 2.0.
For `CCCCCC(=O)c1ccc([C@@H]2[C@@H](C/C=C\CCCC(=O)OC(C)C)[C@H](Cl)C[C@H]2O)cc1` [Entry 2], the “RABBIT Max. hyperemia” value [4] was 0, the “MONKEY Max. IOP (%)” value [1] was 20% and the “DOG Max. IOP (%)” value [2] was −37%. For the same compound, the “DOG Max. hyperemia” value [3] was 0.8.
With `CCCCCC(=O)c1ccc([C@@H]2[C@@H](C/C=C\CCCC(=O)O)[C@H](Cl)C[C@H]2O)cc1` [drawing 41] the Ki [5] was 111 nM, the Ki [6] was 2810 nM and the EC50 [7] was 31 nM. It also gave an EC50 [8] of 9 nM.
